# Earlier results, collected in patent US20060194234A1, “Methods for identifying small molecules that bind specific RNA structural motifs” (PTC Therapeutics, Inc., priority 2001, published 2006).
# Legend:
# [1] = tested on: IIB (or RRE) region of HIV RNA; settings: appears to result from competitive binding directly to the RRE RNA structural motif
# [2] = tested on: 60-mer from ribosomal RNA; settings: literature statement in background
Compound,block of the binding of Rev to its viral recognition element in the IIB (or RRE) region of HIV RNA [1],binding to a 60-mer from ribosomal RNA [2]
NC[C@@H]1O[C@H](O[C@H]2[C@@H](O)[C@H](O[C@@H]3[C@@H](O)[C@H](N)C[C@H](N)[C@H]3O[C@H]3O[C@H](CN)[C@@H](O)[C@H](O)[C@H]3N)O[C@@H]2CO)[C@H](N)[C@@H](O)[C@@H]1O [neomycin B],can block the binding,–
thiostreptone,–,binds tightly
NC[C@@H]1O[C@H](O[C@H]2[C@@H](O)[C@H](O[C@@H]3[C@@H](O)[C@H](N)C[C@H](N)[C@H]3O[C@H]3O[C@H](CO)[C@@H](O)C[C@H]3N)O[C@@H]2CO)[C@H](N)[C@@H](O)[C@@H]1O[C@H]1O[C@H](CO)[C@@H](O)[C@H](O)[C@@H]1O [lividomycin A],can block the binding,–
NC[C@H]1O[C@H](O[C@H]2[C@H](O)[C@@H](O[C@H]3O[C@H](CO)[C@@H](O)[C@H](N)[C@H]3O)[C@H](N)C[C@@H]2N)[C@H](N)C[C@@H]1O [tobramycin],can block the binding,–
